Results published in EPA's ToxRefDB 2.

Columns and labels:
rat [1] = conditions: Prenatal developmental toxicity study; wistar; Injection; Intravenous; dose end: 18 GD; group: maternal; systemic / in life observation / body weight / body weight gain + systemic / in life observation / clinical signs / motor activity + …
mouse [2] = conditions: Subchronic oral toxicity in rodents, other, Gavage/Intubation, dose end: 90 day, group: systemic
dog = conditions: Subchronic oral toxicity in nonrodent, beagle, Capsule, dose end: 98 day, group: systemic
rat [3] = conditions: Subchronic oral toxicity in rodents, sprague dawley, Feed, dose end: 90 day, group: systemic, systemic / pathology microscopic / stomach / hyperkeratosis + systemic / pathology microscopic / stomach / hyperplasia
mouse [4] = conditions: Combined chronic toxicity/carcinogenicity; cd1; Oral; Feed; dose end: 24 month; group: systemic; systemic / pathology microscopic / stomach / carcinoma + systemic / organ weight / kidney / nos + systemic / organ weight / ovary / relative…
rat [5] = conditions: Neurotoxicity screening battery; sprague dawley; Oral; Feed; dose end: 90 day; group: cannot be grouped; systemic / in life observation / body weight / body weight + systemic / in life observation / food consumption / food consumption + systemic…
[6] = systemic / organ weight / liver / relative to body weight + systemic / organ weight / kidney / absolute
[7] = systemic / clinical chemistry / alanine aminotransferase (alt/sgpt) / alanine aminotransferase (alt/sgpt)

Compound: CC(C)c1ccc(C(=O)N=C(N)N)cc1S(C)(=O)=O.CS(=O)(=O)O [Cariporide mesylate]
- LEL (rat [1]): 125 mg/kg/day
- LOAEL (rat [1]): > 125 mg/kg/day
- NEL (rat [1]): 25 mg/kg/day
- NOAEL (rat [1]): ≥ 125 mg/kg/day
- NOAEL (mouse [2]; systemic / organ weight / liver / relative to body weight + systemic / in life observation / clinical signs / abnormal gait + systemic / in …): 250 mg/kg/day
- LEL (mouse [2]; [6]): 250 mg/kg/day
- LOAEL (mouse [2]; [6]): 500 mg/kg/day
- NEL (mouse [2]; [6]): < 250 mg/kg/day

Compound: N#Cc1c(Cl)c(Cl)c(Cl)c(C#N)c1Cl [Chlorothalonil]
- LEL (dog; [7]): 15 mg/kg/day
- NEL (dog; [7]): < 15 mg/kg/day
- LOAEL (dog; systemic / in life observation / body weight / body weight gain): 150 mg/kg/day
- NOAEL (dog; systemic / in life observation / body weight / body weight gain + systemic / clinical chemistry / alanine aminotransferase (alt/sgpt) / …): 15 mg/kg/day
- LEL (rat [3]): 2.3 mg/kg/day
- LOAEL (rat [3]): 2.3 mg/kg/day
- NEL (rat [3]): < 2.3 mg/kg/day
- NOAEL (rat [3]): < 2.3 mg/kg/day
- LEL (mouse [4]): 112 mg/kg/day
- LOAEL (mouse [4]): 112 mg/kg/day
- NEL (mouse [4]): < 112 mg/kg/day
- NOAEL (mouse [4]): < 112 mg/kg/day
- LEL (rat [5]): 232 mg/kg/day
- LOAEL (rat [5]): 232 mg/kg/day
- NEL (rat [5]): 22 mg/kg/day
- NOAEL (rat [5]): 22 mg/kg/day
